According to the supplement of paper PMC4862054:
“And” between values parts separate entries of the source, which are not always exact repeats. Equal values may be shown once.

system: CAL-51; assay: normalised response (% of control), CellTiter-Glo; higher = more viable cells (100 = DMSO, 0 = benzethonium chloride kill control); conditions: incubation time: 72 h
How it was run: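 The table gives the normalised signal for a single concentration in each entry. Breast cancer cell lines were seeded (20 µl suspension) into 384-well plates holding compound at 5 concentrations in 10-fold steps over a compound-specific 10,000-fold range and incubated 72 h, then read for CellTox Green fluorescence (485/520 nm) and CellTiter-Glo luminescence. Normalisation on each plate used 0.1 % DMSO (100) and a positive kill control (0).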

Compound | normalised response [%]
c1ccc2c(CCNc3ccc(Nc4ccncc4)cc3)c[nH]c2c1 [Serdemetan] (10000 nM) | 9.77
CN(C)CCOc1ccc(/C(=C(/CCCl)c2ccccc2)c2ccccc2)cc1 [Toremifene] (10000 nM) | 98.3
CC(C)C[C@@H](C(=O)N[C@H](C(=O)OC1CCCC1)c1ccccc1)[C@H](O)C(=O)NO [Tosedostat] (10000 nM) | 71.9
COCC[n+]1c2c(n(Cc3cnccn3)c1C)C(=O)c1ccccc1C2=O [YM155] (10000 nM) | -0.12

system: HCC1937; assay: drug sensitivity score (DSS), CellTiter-Blue viability (DSS (AUC-based score)); higher = stronger viability inhibition; extreme values may be limits of the assay; conditions: incubation time: 72 h
How it was run: (§1)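 Cells from breast cancer lines were grown with compound for 72 h in 384-well plates, using a 5- or 9-concentration series. CellTiter-Blue fluorescence (560/590 nm) served as the viability readout, normalised plate by plate to 0.1 % DMSO and a positive kill control. A drug sensitivity score was computed as the area under the fitted dose-response curve.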

Compound | drug sensitivity score
Cc1cc(Nc2cc(CN3CCOCC3)c3nc(C)c(Cc4ccc(Cl)cc4F)n3n2)n[nH]1 | 6.84
N#Cc1ccc(COC[C@H]2O[C@@H](n3c(NCc4ccc(Cl)c(Cl)c4)nc4c(N)ncnc43)[C@H](O)[C@@H]2O)cc1 | 3.59
COc1cc(OC2CCN(C)CC2)ccc1Nc1ncc2c(n1)n(C1CCCC1)c(=O)n2C [AZ 3146] | 0
CN(C)c1nc(N(C)C)nc(N(C)C)n1 [Altretamine] | 0
COC(=O)c1ccc2c(c1)NC(=O)/C2=C(\Nc1ccc(N(C)C(=O)CN2CCN(C)CC2)cc1)c1ccccc1 [BIBF 1120] | 0
Nc1cc(C(F)(F)F)c(-c2cc(N3CCOCC3)nc(N3CCOCC3)n2)cn1 [BKM-120] | 6.85
O=C(/C=C/c1cccc(S(=O)(=O)Nc2ccccc2)c1)NO [Belinostat] | 12.3
O=P1(N(CCCl)CCCl)NCCCO1 (stereo unspecified) [Cyclophosphamide] | 0
C=C1C[C@@H]2[C@H](CC[C@]3(C)C(=O)CC[C@@H]23)[C@@]2(C)C=CC(=O)C=C12 [Exemestane] | 0
COc1cc2ncnc(Nc3ccc(F)c(Cl)c3)c2cc1OCCCN1CCOCC1 [Gefitinib] | 0
O=C(Nc1ccncc1)C(=O)c1cn(Cc2ccc(Cl)cc2)c2ccccc12 [Indibulin] | 25.9
NC(=O)c1ccc(I)c([N+](=O)[O-])c1 [Iniparib] | 0
CCc1c2c(nc3ccc(OC(=O)N4CCC(N5CCCCC5)CC4)cc13)-c1cc3c(c(=O)n1C2)COC(=O)[C@]3(O)CC [Irinotecan] | 9.68 and 9.91
Oc1ccc2c(c1)CC[C@H](c1ccccc1)[C@@H]2c1ccc(OCCN2CCCC2)cc1 [Lasofoxifene] | 0
Cc1ccc(NC(=O)c2ccc(CN3CCN(C)CC3)cc2)cc1Nc1nc(-c2cccnc2)cs1 [Masitinib] | 0
O=C(Nc1cccnc1)N1CCC(Cc2cccc(Oc3ccc(C(F)(F)F)cn3)c2)CC1 [PF-3845] | 0
COCC1(CO)C(=O)C2CCN1CC2 (stereo unspecified) [Prima-1 Met] | 3.72
CNC(=O)c1cc(Oc2ccc(NC(=O)Nc3ccc(Cl)c(C(F)(F)F)c3)c(F)c2)ccn1 [Regorafenib] | 3.4
c1ccc2c(CCNc3ccc(Nc4ccncc4)cc3)c[nH]c2c1 [Serdemetan] | 0
S=P(N1CC1)(N1CC1)N1CC1 [Thio-TEPA] | 0
CN(C)CCOc1ccc(/C(=C(/CCCl)c2ccccc2)c2ccccc2)cc1 [Toremifene] | 0
CC(C)C[C@@H](C(=O)N[C@H](C(=O)OC1CCCC1)c1ccccc1)[C@H](O)C(=O)NO [Tosedostat] | 14.9
COc1cc2/c(=N/c3ccc(Br)cc3F)nc[nH]c2cc1OCC1CCN(C)CC1 [Vandetanib] | 0

system: HCC1599; assay: as above; conditions: incubation time: 72 h
How it was run: as §1

Compound | drug sensitivity score
Cc1cc(Nc2cc(CN3CCOCC3)c3nc(C)c(Cc4ccc(Cl)cc4F)n3n2)n[nH]1 | 0
N#Cc1ccc(COC[C@H]2O[C@@H](n3c(NCc4ccc(Cl)c(Cl)c4)nc4c(N)ncnc43)[C@H](O)[C@@H]2O)cc1 | 8.13
COc1cc(OC2CCN(C)CC2)ccc1Nc1ncc2c(n1)n(C1CCCC1)c(=O)n2C [AZ 3146] | 0
CN(C)c1nc(N(C)C)nc(N(C)C)n1 [Altretamine] | 1.24
COC(=O)c1ccc2c(c1)NC(=O)/C2=C(\Nc1ccc(N(C)C(=O)CN2CCN(C)CC2)cc1)c1ccccc1 [BIBF 1120] | 0
Nc1cc(C(F)(F)F)c(-c2cc(N3CCOCC3)nc(N3CCOCC3)n2)cn1 [BKM-120] | 8.97
O=C(/C=C/c1cccc(S(=O)(=O)Nc2ccccc2)c1)NO [Belinostat] | 14.6
O=P1(N(CCCl)CCCl)NCCCO1 (stereo unspecified) [Cyclophosphamide] | 0
C=C1C[C@@H]2[C@H](CC[C@]3(C)C(=O)CC[C@@H]23)[C@@]2(C)C=CC(=O)C=C12 [Exemestane] | 0
COc1cc2ncnc(Nc3ccc(F)c(Cl)c3)c2cc1OCCCN1CCOCC1 [Gefitinib] | 2.82 and 3.43
O=C(Nc1ccncc1)C(=O)c1cn(Cc2ccc(Cl)cc2)c2ccccc12 [Indibulin] | 0
NC(=O)c1ccc(I)c([N+](=O)[O-])c1 [Iniparib] | 0
Oc1ccc2c(c1)CC[C@H](c1ccccc1)[C@@H]2c1ccc(OCCN2CCCC2)cc1 [Lasofoxifene] | 0
Cc1ccc(NC(=O)c2ccc(CN3CCN(C)CC3)cc2)cc1Nc1nc(-c2cccnc2)cs1 [Masitinib] | 0
O=C(Nc1cccnc1)N1CCC(Cc2cccc(Oc3ccc(C(F)(F)F)cn3)c2)CC1 [PF-3845] | 0
COCC1(CO)C(=O)C2CCN1CC2 (stereo unspecified) [Prima-1 Met] | 0
CNC(=O)c1cc(Oc2ccc(NC(=O)Nc3ccc(Cl)c(C(F)(F)F)c3)c(F)c2)ccn1 [Regorafenib] | 1.06
c1ccc2c(CCNc3ccc(Nc4ccncc4)cc3)c[nH]c2c1 [Serdemetan] | 1.87
S=P(N1CC1)(N1CC1)N1CC1 [Thio-TEPA] | 0
CN(C)CCOc1ccc(/C(=C(/CCCl)c2ccccc2)c2ccccc2)cc1 [Toremifene] | 0
CC(C)C[C@@H](C(=O)N[C@H](C(=O)OC1CCCC1)c1ccccc1)[C@H](O)C(=O)NO [Tosedostat] | 0
COc1cc2/c(=N/c3ccc(Br)cc3F)nc[nH]c2cc1OCC1CCN(C)CC1 [Vandetanib] | 0

system: CAL-85-1; assay: as above; conditions: incubation time: 72 h
How it was run: as §1

Compound | drug sensitivity score
Cc1cc(Nc2cc(CN3CCOCC3)c3nc(C)c(Cc4ccc(Cl)cc4F)n3n2)n[nH]1 | 4.09
N#Cc1ccc(COC[C@H]2O[C@@H](n3c(NCc4ccc(Cl)c(Cl)c4)nc4c(N)ncnc43)[C@H](O)[C@@H]2O)cc1 | 0
COc1cc(OC2CCN(C)CC2)ccc1Nc1ncc2c(n1)n(C1CCCC1)c(=O)n2C [AZ 3146] | 1.25
CN(C)c1nc(N(C)C)nc(N(C)C)n1 [Altretamine] | 1.01
COC(=O)c1ccc2c(c1)NC(=O)/C2=C(\Nc1ccc(N(C)C(=O)CN2CCN(C)CC2)cc1)c1ccccc1 [BIBF 1120] | 1.29
Nc1cc(C(F)(F)F)c(-c2cc(N3CCOCC3)nc(N3CCOCC3)n2)cn1 [BKM-120] | 9.38
O=C(/C=C/c1cccc(S(=O)(=O)Nc2ccccc2)c1)NO [Belinostat] | 12.2
O=P1(N(CCCl)CCCl)NCCCO1 (stereo unspecified) [Cyclophosphamide] | 0
C=C1C[C@@H]2[C@H](CC[C@]3(C)C(=O)CC[C@@H]23)[C@@]2(C)C=CC(=O)C=C12 [Exemestane] | 0
COc1cc2ncnc(Nc3ccc(F)c(Cl)c3)c2cc1OCCCN1CCOCC1 [Gefitinib] | 8.75 and 10.2
O=C(Nc1ccncc1)C(=O)c1cn(Cc2ccc(Cl)cc2)c2ccccc12 [Indibulin] | 11.8
NC(=O)c1ccc(I)c([N+](=O)[O-])c1 [Iniparib] | 0
CCc1c2c(nc3ccc(OC(=O)N4CCC(N5CCCCC5)CC4)cc13)-c1cc3c(c(=O)n1C2)COC(=O)[C@]3(O)CC [Irinotecan] | 2.57 and 1.55
Oc1ccc2c(c1)CC[C@H](c1ccccc1)[C@@H]2c1ccc(OCCN2CCCC2)cc1 [Lasofoxifene] | 0
Cc1ccc(NC(=O)c2ccc(CN3CCN(C)CC3)cc2)cc1Nc1nc(-c2cccnc2)cs1 [Masitinib] | 0
O=C(Nc1cccnc1)N1CCC(Cc2cccc(Oc3ccc(C(F)(F)F)cn3)c2)CC1 [PF-3845] | 0
COCC1(CO)C(=O)C2CCN1CC2 (stereo unspecified) [Prima-1 Met] | 0
CNC(=O)c1cc(Oc2ccc(NC(=O)Nc3ccc(Cl)c(C(F)(F)F)c3)c(F)c2)ccn1 [Regorafenib] | 0
c1ccc2c(CCNc3ccc(Nc4ccncc4)cc3)c[nH]c2c1 [Serdemetan] | 0
S=P(N1CC1)(N1CC1)N1CC1 [Thio-TEPA] | 0
CN(C)CCOc1ccc(/C(=C(/CCCl)c2ccccc2)c2ccccc2)cc1 [Toremifene] | 0
CC(C)C[C@@H](C(=O)N[C@H](C(=O)OC1CCCC1)c1ccccc1)[C@H](O)C(=O)NO [Tosedostat] | 4.66
